Data published in patent publication US20220142958A1, “MEDICINAL COMPOSITION HAVING EXCELLENT STABILITY” (EA Pharma Co., Ltd., priority 2019, published 2022).

Experiment: Example 1B: residual ratio of Compound A1 at 2 concentrations stored at 5° C.
Assay type: physicochemical
Experimental: According to Table 3 below, Compound A1 was dissolved in each of the buffer solutions at 2 concentrations. Each of these solutions was dispensed into a glass vial and stored at 5° C. After the storage, a residual ratio of Compound A1 was calculated according to a test method described below.
Test method: In the solution after the storage, the residual ratio was analyzed according to a normal method using a liquid chromatography apparatus Prominence (manufactured by Shimadzu Corporation) and an ultraviolet absorptiometer (measurement wavelength: 254 nm, Prominence (manufactured by Shimadzu Corporation)). At this time, SUMIPAX ODS (3 mm×150 mm, 5 μm, manufactured by SCAS) was used as a column.
The residual ratio (%) of Compound A1 during each storage period at 5° C. was calculated as follows.
Residual ratio (%) of Compound A1 during each storage period=peak area of Compound A1 in sample solution/sum of peak area of sample solution×100

Cc1c(Cl)cc(S(=O)(=O)[O-])cc1NC(=O)NC[C@H](N)C(=O)O.[Na+] [Compound A1, sodium 3-{[(2S)-2-amino-2-carboxyethyl]carbamoylamino}-5-chloro-4-methylbenzenesulfonate]
Residual ratio (%) (0.1 mg/mL, pH 1.1, 5° C., 23 hours): 100% | Residual ratio (%) (0.1 mg/mL, pH 1.1, 5° C., 141 hours): 100% | Residual ratio (%) (0.1 mg/mL, pH 1.1, 5° C., 570 hours): 100% | Residual ratio (%) (0.1 mg/mL, pH 7.0, 5° C., 23 hours): 100% | Residual ratio (%) (0.1 mg/mL, pH 7.0, 5° C., 141 hours): 100% | Residual ratio (%) (0.1 mg/mL, pH 7.0, 5° C., 570 hours): 100% | Residual ratio (%) (10 mg/mL, pH 1.1, 5° C., 23 hours): 100% | Residual ratio (%) (10 mg/mL, pH 1.1, 5° C., 141 hours): 100% | Residual ratio (%) (10 mg/mL, pH 1.1, 5° C., 570 hours): 100% | Residual ratio (%) (10 mg/mL, pH 7.0, 5° C., 23 hours): 100% | Residual ratio (%) (10 mg/mL, pH 7.0, 5° C., 141 hours): 100% | Residual ratio (%) (10 mg/mL, pH 7.0, 5° C., 570 hours): 100% | stability of the formulation (pH of 1.1 and pH of 7.0, 5° C., regardless of the concentration): stable
